{
  "source": "paper PMC3626250",
  "about": "“Effects of Borneol on Pharmacokinetics and Tissue Distribution of Notoginsenoside R1 and Ginsenosides Rg1 and Re in Panax notoginseng in Rabbits” (Journal of Analytical Methods in Chemistry, 2013)",
  "key": {"[1]": {"tested_on": "Caco-2 cells", "assay": "MTT cytotoxicity assay toward Caco-2 cells", "assay_type": "cell-based", "details": "chosen for transport study", "protocol": "The Caco-2 cells were cultured in Dulbecco's modified Eagle's medium (DMEM) supplemented with 20% foetal bovine serum, 1% nonessential amino acids and penicillin-streptomycin, at 37°C in an atmosphere with a relative humidity of 95% and a CO2 flow of 5%. Medium was replaced every 2-3 days. When the cell monolayer reached 80% confluence, the cells were detached with a solution of 0.02% EDTA and 0.25% trypsin. The vinblastine-selected Caco-2 cells were cultivated in the presence of 10 nM vinblastine to induce P-glycoprotein (P-gp) expression. The culture medium was changed to a fresh medium without vinblastine 24 h before experiments, and the cells were used between passages 25 and 46. Prior to the transport study, cytotoxicity of NGR1, GRg1, GRe, and Borneol toward Caco-2 cells was determined using MTT assays. Noncytotoxic concentrations of 500 μM NGR1, GRg1, GRe, and 200 μM Borneol (dissolved in DMSO) were chosen for transport study."}, "[2]": {"tested_on": "Caco-2 cell monolayers", "assay": "TEER values of the Caco-2 cell monolayers", "assay_type": "cell-based", "details": "200 μM Borneol with 500 μM NGR1, GRg1 and GRe, Caco-2 monolayers", "protocol": "In transport studies, vinblastine-selected Caco-2 cells were seeded on polycarbonate filter of transwells for 18–21 days before starting transport study, and the monolayers with the transepithelial electrical resistance (TEER) values greater than 300 Ωcm^2 were used. Caco-2 monolayers were rinsed twice with Hanks' balanced salt solution (HBSS) and preincubated in HBSS at 37°C for 30 min before starting experiments. To start the experiments, 500 μM of NGR1, GRg1, and GRe in final concentrations were added to the donor side with or without 200 μM Borneol and then incubated at 37°C. An aliquot of 0.1 mL samples were withdrawn from receiver chambers at 0, 30, 60, 90, and 120 min after the loading. After each sampling, 0.1 mL of HBSS was added to the receiver chamber to maintain a constant volume. All the experiments were performed five times in duplicate. […] During the above transport studies, the TEER values were also monitored before and at the end of each experiment. Apparent permeability coefficients (P app) were then calculated according to the following equation: (1) Papp=(dC/dt×V)/(A×C0), where dC/dt is the rate of the test compound appearing in the receiver chamber, V is the volume of the solution in the receiver chamber, A is the cell monolayer surface area, and C 0 is the initial concentration of the test compound added in the donor chamber. […]"}},
  "data": [
    {"smiles": "CC1(C)C2CCC1(C)C(O)C2", "note": "(centres unmarked) [Borneol]", "values": [
      {"measurement": "Noncytotoxic concentration", "setting": "[1]", "result": 200, "unit": "µM"},
      {"measurement": "TEER values of the monolayers decreased reversibly to", "setting": "[2]", "result": "about 23%"}
    ]}
  ]
}
